These results are taken from PMC4774911, “Biochemical Screening of Five Protein Kinases from Plasmodium falciparum against 14,000 Cell-Active Compounds” (PLoS ONE, 2016).

For one test, the target named is CIT (Homo sapiens, UniProt O14578). The experiment in a line: biochemical. The following applies: read-out: KDapp. Details: endogenous in cells; host or cells: K562 cell extract; species or system K562 (extract); replicate k of n = 2 (each experiment ID is one independent experiment; two experiment IDs per compound).
Sequence of CIT (O14578 whole entry): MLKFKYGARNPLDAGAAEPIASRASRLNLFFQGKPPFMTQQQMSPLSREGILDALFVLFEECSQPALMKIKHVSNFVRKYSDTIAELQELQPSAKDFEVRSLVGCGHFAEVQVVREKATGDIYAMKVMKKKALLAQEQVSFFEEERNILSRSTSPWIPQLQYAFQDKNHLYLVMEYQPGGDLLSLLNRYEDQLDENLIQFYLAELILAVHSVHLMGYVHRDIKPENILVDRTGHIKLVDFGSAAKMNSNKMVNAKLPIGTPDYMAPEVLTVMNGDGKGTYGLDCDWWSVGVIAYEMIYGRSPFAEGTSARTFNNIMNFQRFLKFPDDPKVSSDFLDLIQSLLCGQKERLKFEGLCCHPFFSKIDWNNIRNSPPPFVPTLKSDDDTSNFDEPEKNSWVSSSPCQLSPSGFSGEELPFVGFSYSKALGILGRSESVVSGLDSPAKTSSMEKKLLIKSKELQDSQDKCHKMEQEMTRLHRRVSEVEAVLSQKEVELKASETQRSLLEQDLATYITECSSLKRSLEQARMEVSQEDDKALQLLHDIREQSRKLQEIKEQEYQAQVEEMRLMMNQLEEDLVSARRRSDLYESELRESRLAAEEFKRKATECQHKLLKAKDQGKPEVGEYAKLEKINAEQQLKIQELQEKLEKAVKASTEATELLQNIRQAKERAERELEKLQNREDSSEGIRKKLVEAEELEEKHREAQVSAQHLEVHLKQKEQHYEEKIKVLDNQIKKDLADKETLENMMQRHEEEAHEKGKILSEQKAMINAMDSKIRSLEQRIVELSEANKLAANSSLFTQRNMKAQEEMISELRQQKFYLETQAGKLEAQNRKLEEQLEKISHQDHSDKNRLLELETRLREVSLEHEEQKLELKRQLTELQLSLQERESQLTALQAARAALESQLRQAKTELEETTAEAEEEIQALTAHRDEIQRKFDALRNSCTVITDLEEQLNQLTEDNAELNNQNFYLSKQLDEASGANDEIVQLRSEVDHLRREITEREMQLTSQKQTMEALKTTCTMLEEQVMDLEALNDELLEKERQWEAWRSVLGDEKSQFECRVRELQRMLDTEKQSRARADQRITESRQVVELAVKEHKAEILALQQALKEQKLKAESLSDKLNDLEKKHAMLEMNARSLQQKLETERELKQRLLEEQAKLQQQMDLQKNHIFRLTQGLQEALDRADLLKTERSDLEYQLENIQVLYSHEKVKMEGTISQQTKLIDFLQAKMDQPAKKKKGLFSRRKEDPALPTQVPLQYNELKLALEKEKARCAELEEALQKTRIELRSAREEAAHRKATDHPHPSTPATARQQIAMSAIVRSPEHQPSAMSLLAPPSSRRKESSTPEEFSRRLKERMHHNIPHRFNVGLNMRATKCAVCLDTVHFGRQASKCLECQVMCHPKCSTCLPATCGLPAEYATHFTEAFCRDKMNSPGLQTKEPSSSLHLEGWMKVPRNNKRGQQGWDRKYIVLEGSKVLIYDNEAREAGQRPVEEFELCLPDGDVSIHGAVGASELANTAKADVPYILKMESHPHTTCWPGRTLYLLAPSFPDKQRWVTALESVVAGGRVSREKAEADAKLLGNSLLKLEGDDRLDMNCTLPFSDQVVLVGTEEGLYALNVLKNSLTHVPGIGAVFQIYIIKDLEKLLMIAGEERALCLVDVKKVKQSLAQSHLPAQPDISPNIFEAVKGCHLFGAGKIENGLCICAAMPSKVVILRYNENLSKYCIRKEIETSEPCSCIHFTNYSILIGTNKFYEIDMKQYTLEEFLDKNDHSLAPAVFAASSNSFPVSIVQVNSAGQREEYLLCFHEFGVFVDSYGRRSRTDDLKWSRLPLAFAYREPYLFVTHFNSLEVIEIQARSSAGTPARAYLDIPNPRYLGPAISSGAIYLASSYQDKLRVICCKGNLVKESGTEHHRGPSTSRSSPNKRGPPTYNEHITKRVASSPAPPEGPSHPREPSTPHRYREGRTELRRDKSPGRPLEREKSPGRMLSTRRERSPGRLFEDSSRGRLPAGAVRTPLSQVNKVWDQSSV
The target in another test is T1, PRKD3 (Homo sapiens, UniProt O94806).
T1 sequence (O94806 1-890): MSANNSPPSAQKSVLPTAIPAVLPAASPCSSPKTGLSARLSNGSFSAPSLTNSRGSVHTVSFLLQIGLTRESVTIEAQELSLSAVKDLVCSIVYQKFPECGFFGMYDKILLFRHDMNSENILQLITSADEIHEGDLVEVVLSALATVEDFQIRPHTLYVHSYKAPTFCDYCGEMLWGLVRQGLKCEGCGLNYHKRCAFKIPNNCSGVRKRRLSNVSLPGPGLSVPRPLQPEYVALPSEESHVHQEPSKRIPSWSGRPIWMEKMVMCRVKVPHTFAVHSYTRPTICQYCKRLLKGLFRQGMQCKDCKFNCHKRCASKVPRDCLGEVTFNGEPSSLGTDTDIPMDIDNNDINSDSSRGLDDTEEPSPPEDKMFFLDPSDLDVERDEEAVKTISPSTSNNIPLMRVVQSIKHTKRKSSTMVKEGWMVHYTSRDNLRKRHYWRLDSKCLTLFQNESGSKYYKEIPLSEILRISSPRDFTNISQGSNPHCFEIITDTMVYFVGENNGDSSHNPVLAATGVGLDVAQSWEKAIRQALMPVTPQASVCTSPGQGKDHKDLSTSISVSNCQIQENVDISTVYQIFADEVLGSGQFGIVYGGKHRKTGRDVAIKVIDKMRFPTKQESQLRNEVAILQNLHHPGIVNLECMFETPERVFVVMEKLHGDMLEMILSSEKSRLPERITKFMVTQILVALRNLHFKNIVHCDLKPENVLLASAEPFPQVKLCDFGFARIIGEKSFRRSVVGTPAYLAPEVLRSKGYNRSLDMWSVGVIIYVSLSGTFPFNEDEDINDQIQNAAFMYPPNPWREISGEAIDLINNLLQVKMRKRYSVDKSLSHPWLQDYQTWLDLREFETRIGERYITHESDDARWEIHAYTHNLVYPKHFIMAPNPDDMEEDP
Kind of test: biochemical. The following applies: read-out: KDapp. On the set-up: endogenous in cells; host or cells: K562 cell extract; species or system K562 (extract); replicate k of n = 2 (each experiment ID is one independent experiment; two experiment IDs per compound).

The target in a further test is T2, MERTK (Homo sapiens, UniProt Q12866).
T2 sequence (Q12866 1-999): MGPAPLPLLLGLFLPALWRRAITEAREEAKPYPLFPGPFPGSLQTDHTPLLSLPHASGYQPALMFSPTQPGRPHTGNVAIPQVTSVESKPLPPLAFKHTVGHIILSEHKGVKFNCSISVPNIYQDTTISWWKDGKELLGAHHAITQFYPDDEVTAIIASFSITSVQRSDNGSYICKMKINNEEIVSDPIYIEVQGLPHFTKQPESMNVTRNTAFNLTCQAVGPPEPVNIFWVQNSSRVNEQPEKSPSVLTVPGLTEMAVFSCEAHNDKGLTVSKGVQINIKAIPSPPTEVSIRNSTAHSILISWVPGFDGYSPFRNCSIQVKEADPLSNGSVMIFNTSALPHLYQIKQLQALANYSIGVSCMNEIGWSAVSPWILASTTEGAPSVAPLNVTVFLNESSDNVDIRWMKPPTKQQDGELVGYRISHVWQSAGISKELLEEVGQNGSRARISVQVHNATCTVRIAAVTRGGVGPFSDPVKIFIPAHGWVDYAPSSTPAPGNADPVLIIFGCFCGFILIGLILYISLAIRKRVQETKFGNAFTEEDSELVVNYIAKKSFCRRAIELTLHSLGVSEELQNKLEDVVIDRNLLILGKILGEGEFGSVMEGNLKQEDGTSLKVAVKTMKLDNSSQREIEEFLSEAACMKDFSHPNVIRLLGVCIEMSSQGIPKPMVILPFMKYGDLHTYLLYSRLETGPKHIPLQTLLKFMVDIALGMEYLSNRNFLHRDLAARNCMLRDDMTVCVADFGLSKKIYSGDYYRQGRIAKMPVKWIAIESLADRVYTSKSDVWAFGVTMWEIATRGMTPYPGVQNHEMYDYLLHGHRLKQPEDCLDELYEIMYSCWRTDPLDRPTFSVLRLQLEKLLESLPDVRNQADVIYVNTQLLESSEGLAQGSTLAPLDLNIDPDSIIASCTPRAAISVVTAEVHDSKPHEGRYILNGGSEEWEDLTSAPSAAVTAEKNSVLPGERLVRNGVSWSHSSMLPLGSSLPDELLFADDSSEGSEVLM
Kind of test: biochemical. The following applies: read-out: KDapp. On the set-up: endogenous in cells; host or cells: K562 cell extract; species or system K562 (extract); replicate k of n = 2 (each experiment ID is one independent experiment; two experiment IDs per compound).

For a further test, the target named is TNIK (Homo sapiens, UniProt Q9UKE5). Kind of test: biochemical. The conditions noted are these: read-out: KDapp. Details: endogenous in cells; host or cells: K562 cell extract; species or system K562 (extract); replicate k of n = 2 (each experiment ID is one independent experiment; two experiment IDs per compound).
A further test deals with STK10 (Homo sapiens, UniProt O94804). Kind of test: biochemical. Details: endogenous in cells; host or cells: K562 cell extract; species or system K562 (extract); replicate k of n = 2 (each experiment ID is one independent experiment; two experiment IDs per compound). The following applies: read-out: KDapp.
Sequence of STK10 (O94804 whole entry): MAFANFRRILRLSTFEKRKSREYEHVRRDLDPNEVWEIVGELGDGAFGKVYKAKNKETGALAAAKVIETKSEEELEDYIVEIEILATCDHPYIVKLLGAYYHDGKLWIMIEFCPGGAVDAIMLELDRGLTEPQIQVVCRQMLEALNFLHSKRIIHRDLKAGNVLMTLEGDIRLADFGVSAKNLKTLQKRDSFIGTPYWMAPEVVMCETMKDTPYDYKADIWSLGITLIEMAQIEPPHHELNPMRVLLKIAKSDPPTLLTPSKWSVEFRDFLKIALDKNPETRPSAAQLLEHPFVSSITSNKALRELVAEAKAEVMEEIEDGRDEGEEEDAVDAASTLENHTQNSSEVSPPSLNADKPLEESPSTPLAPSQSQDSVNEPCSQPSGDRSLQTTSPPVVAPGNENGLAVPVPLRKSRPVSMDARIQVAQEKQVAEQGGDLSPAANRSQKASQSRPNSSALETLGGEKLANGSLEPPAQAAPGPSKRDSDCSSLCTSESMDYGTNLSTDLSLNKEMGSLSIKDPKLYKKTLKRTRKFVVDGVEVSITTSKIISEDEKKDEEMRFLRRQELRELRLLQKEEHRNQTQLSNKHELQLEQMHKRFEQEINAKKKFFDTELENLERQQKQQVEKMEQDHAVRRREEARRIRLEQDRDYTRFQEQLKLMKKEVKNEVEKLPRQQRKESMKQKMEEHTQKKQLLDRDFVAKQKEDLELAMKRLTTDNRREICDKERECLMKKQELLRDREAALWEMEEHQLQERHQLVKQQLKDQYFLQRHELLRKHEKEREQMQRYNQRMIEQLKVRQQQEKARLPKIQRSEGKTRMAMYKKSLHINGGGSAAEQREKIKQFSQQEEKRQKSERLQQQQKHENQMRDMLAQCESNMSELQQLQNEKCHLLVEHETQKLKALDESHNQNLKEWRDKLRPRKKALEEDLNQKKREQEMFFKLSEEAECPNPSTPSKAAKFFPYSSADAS
A further test concerns the target PIP5K3 (Homo sapiens, UniProt Q9Y2I7). Kind of test: biochemical. On the set-up: endogenous in cells; host or cells: K562 cell extract; species or system K562 (extract); replicate k of n = 2 (each experiment ID is one independent experiment; two experiment IDs per compound). The following applies: read-out: KDapp.
For another test, the target named is CSNK1A1 (Homo sapiens, UniProt P48729). Kind of test: biochemical. On the set-up: endogenous in cells; host or cells: K562 cell extract; species or system K562 (extract); replicate k of n = 2 (each experiment ID is one independent experiment; two experiment IDs per compound). The following applies: read-out: KDapp.
For a further test, the system named is P. falciparum 3D7 cells. The conditions noted are these: cited from earlier work.
[1] abbreviates: 3D7, downloaded from ChEMBL, ref F.J. Gamo et al., Nature 2010.
Setting [2] is: P. falciparum 3D7, downloaded from ChEMBL ref F.J. Gamo et al., Nature 2010.

Molecules are shown by their SMILES. Where “and” joins values, the source holds several entries; their conditions need not be identical. Identical values can stand only once. Like-named read-outs stand apart in the source and are kept apart here.

Sequence of PIP5K3 (Q9Y2I7 whole entry): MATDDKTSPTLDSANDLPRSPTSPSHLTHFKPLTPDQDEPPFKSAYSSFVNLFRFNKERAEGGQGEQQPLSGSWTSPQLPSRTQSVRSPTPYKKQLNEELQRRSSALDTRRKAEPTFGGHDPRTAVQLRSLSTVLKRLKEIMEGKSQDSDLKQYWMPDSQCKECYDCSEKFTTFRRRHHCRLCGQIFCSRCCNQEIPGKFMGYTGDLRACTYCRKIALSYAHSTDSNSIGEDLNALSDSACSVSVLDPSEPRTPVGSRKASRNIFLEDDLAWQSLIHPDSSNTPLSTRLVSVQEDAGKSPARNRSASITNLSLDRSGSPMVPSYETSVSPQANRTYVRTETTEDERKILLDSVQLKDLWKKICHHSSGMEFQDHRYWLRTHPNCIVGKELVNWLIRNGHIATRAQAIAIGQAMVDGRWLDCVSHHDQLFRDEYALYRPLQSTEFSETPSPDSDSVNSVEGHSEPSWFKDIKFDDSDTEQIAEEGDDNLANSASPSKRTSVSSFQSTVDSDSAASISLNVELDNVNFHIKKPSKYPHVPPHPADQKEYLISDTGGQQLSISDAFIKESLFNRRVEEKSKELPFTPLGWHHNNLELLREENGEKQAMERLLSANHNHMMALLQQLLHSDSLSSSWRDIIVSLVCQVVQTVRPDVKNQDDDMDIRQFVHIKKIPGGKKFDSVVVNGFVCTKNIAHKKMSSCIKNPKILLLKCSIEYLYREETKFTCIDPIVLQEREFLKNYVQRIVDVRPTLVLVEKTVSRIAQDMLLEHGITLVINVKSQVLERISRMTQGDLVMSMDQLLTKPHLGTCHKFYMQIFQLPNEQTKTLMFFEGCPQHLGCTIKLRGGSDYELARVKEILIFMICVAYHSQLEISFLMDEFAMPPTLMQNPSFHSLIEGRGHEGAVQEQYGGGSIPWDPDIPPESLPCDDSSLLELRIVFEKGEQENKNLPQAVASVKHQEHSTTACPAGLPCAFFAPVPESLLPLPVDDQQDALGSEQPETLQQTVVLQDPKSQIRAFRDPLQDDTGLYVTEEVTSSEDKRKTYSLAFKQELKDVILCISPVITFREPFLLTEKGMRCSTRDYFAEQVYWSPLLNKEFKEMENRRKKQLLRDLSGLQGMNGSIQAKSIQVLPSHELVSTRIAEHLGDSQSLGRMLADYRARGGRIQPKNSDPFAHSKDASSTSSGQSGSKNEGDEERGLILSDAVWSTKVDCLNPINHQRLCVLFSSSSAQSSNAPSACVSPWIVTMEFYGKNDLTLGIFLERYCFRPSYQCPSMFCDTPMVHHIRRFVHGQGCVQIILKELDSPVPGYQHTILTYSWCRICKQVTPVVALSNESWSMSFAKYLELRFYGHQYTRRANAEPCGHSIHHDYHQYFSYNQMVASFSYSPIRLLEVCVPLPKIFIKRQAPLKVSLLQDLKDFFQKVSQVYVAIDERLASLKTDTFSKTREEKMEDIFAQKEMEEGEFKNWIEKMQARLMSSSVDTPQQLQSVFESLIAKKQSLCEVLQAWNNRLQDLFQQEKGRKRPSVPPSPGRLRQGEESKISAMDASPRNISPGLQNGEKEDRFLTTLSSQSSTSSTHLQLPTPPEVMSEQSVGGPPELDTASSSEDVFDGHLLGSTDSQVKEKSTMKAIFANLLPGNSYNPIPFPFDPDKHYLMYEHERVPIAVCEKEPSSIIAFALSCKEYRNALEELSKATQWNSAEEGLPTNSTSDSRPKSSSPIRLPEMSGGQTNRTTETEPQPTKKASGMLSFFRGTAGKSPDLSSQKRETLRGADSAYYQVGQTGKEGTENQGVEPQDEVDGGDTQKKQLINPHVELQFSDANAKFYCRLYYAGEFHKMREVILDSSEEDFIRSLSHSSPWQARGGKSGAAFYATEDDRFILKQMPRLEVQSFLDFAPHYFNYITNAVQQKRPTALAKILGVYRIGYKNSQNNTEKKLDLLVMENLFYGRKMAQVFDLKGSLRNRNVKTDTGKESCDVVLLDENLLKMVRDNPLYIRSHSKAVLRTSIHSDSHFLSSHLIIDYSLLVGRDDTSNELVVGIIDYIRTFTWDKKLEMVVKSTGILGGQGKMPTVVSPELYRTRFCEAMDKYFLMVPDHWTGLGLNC

Turning to `CN1CCN(c2ccc(Nc3ncc(C#N)c(Nc4ccccc4C(N)=O)n3)cc2)CC1.Cl` [TCMDC-134116], the Kd at CIT was 4.86 µM and 4.95 µM; on PRKD3 it was 0.166 µM; at MERTK it was 325 nM; at TNIK, 92.2 nM and 115 nM; on STK10, 25.6 nM and 49.6 nM; at PIP5K3, 681 nM and 785 nM. Moreover, at CSNK1A1, the Kd is 742 nM and 1080 nM. Moreover, the PCT_IHB_3D7 with P. falciparum 3D7 cells (setting [1]) is given as 92%. For the same molecule, the pXC50_3D7 in the test on P. falciparum 3D7 cells (setting [1]) was 7.405.
For `Cl.NCC1(c2nc(-c3ccc(Cl)c(O)c3)c(-c3ccncc3)[nH]2)CCCCC1` [TCMDC-141154], the Kd on CIT is 0.137 µM and 0.239 µM; at PRKD3 it was 3.91 µM; at MERTK it was 4800 nM; on TNIK, 134 nM; on STK10 it was 30.4 nM; at PIP5K3, 524 nM. Besides, the Kd on CSNK1A1 was 224 nM and 255 nM. Moreover, the PCT_IHB_3D7 in the test on P. falciparum 3D7 cells (setting [2]) is 98. The pXC50_3D7 in the test on P. falciparum 3D7 cells (setting [2]) was 6.128.
Consider `CN(C)CC(O)COc1ccc(Nc2ncc([N+](=O)[O-])c(Nc3ccccc3O)n2)cc1.O=C(O)C(F)(F)F` (stereo not drawn) [TCMDC-141399], for which the Kd at CIT was 3.75 µM; at PRKD3 it was 4.09 µM and 3.41 µM; at MERTK, 567 nM; on TNIK it was 378 nM; at STK10, 3360 nM; on PIP5K3 it was 3930 nM and 2770 nM. In addition, the Kd at CSNK1A1 was 7650 nM. Besides, in the test on P. falciparum 3D7 cells (P. falciparum 3D7, ref ChEMBL), the PCT_IHB_3D7 is recorded as 100. Further, the pXC50_3D7 with P. falciparum 3D7 cells (P. falciparum 3D7, ref ChEMBL) is on record as 6.118.
